The test system of one assay is PT and aPTT. Kind of assay: Coagulation parameters (PT, aPTT) after oral administration in rabbits, denudation/stenosis model. It counts as in vivo, rabbit. How it is done: The protocols of the venous thrombosis and skin bleeding models in rabbits were as follows (Supplementary Figure 2). First, fasting rabbits were orally administered a solvent as a control (n = 10), a FXIa inhibitor (ONO-1600586, 5 mg/kg, n = 10; 15 mg/kg, n = 10; and 50 mg/kg, n = 11), or a FXa inhibitor (rivaroxaban, 1.5 mg/kg, 5 mg/kg, and 15 mg/kg, n = 10 each) using a Nelaton catheter of 5 mm diameter (IZUMO Health Co, Ltd) 90 minutes before thrombus formation. The thrombus formation and bleeding were performed under general anesthesia through the subcutaneous injection of a mixture of medetomidine hydrochloride (0.08 mg/kg body weight), butorphanol tartrate (0.2 mg/kg), and midazolam (0.4 mg/kg). Additional anesthesia with one-third amount of the above-mentioned mixture of drugs was administered 80 minutes after the first injection, and all surgical operations proceeded under aseptic conditions.
Blood samples were collected from the central ear arteries of rabbits before and 75 minutes and 4.5 hours after the administration of the solvent, ONO-1600586, and rivaroxaban in 3.8% sodium citrate (9:1 v/v) using 21-gauge needles. Plasma samples were centrifuged at 1500 × g for 15 minutes at room temperature. Prothrombin time (PT) and activated partial thromboplastin time (aPTT) were measured using a coagulation timer (KC-1 Delta, Tcoag Ireland Ltd) and reagents (aPTT: ACTIN, Siemens; PT: THROMBOCHECK PT+, Sysmex).

Assay [1] relates to jugular vein thrombus. Kind of assay: Rabbit model of jugular vein thrombosis by endothelial denudation and luminal stenosis. It counts as in vivo. As to conditions: rabbits; for venous thrombus weight compared with control: 90 minutes before thrombus formation, thrombus weighed after 3 hours. As for the experimental part: The protocols of the venous thrombosis and skin bleeding models in rabbits were as follows (Supplementary Figure 2). First, fasting rabbits were orally administered a solvent as a control (n = 10), a FXIa inhibitor (ONO-1600586, 5 mg/kg, n = 10; 15 mg/kg, n = 10; and 50 mg/kg, n = 11), or a FXa inhibitor ([…], n = 10 each) using a Nelaton catheter of 5 mm diameter (IZUMO Health Co, Ltd) 90 minutes before thrombus formation. […] Additional anesthesia with one-third amount of the above-mentioned mixture of drugs was administered 80 minutes after the first injection, and all surgical operations proceeded under aseptic conditions. Briefly, 90 minutes postadministration of the solvent, ONO-1600586, or rivaroxaban, venous thrombi were induced in rabbit jugular veins through endothelial denudation using a 3F balloon catheter (Edwards Lifesciences), according to a previous study, and the method was modified to induce luminal stenosis. A 2 mm polyethylene tube was placed outside the vessel. Both the jugular vein and polyethylene tube were ligated, and the tube was removed (Supplementary Figure 3). Next, 3 hours after thrombus formation and stenosis, the rabbits were infused with heparin (500 U/kg, i.v.) and then euthanized with an overdose of pentobarbital (60 mg/kg, i.v.). Subsequently, the animals were perfused with 50 mL phosphate-buffered saline (0.01 mol/L), and the jugular veins were sampled. The venous thrombi were immediately removed from the venous wall and weighed. […] Paraffin-embedded sections (4 μm thick) of the rabbit jugular vein thrombus were stained with HE and morphologically assessed. Consecutive sections of thrombi were immunohistochemically stained with antibodies against fibrin (Millipore) and GPIIb/IIIa (Affinity Biologicals Inc). Images were digitized using a photosensitive color CCD camera (BX51, OLYMPUS). Finally, the area of the red-stained erythrocytes in HE staining and the immunopositive areas for fibrin and GPIIb/IIIa were semiquantified using a color imaging morphometry system (WinROOF, Mitani).

Assay [2] relates to jugular vein thrombus. Kind of assay: Stasis-induced thrombus formation in rabbit jugular veins. The assay is classed as in vivo. To be noted: rabbits, oral ONO-1600586 50 mg/kg or rivaroxaban 15 mg/kg 60 minutes before stasis, 6 hours stasis. How it is done:
The protocols of venous thrombosis by stasis were as follows (Supplementary Figure 4). First, fasting rabbits were orally administered a solvent as a control (n = 8), a FXIa inhibitor (ONO-1600586, 50 mg/kg, n = 8), or a FXa inhibitor (rivaroxaban, 15 mg/kg, n = 8) using a Nelaton catheter of 5 mm diameter (IZUMO Health Co, Ltd) 60 minutes before thrombus formation. The process of thrombus formation was performed under general anesthesia through the subcutaneous injection of a mixture of medetomidine hydrochloride (0.08 mg/kg body weight), butorphanol tartrate (0.2 mg/kg), and midazolam (0.4 mg/kg). Briefly, 60 minutes postadministration of the solvent, ONO-1600586, or rivaroxaban, venous thrombi were induced in rabbit jugular veins by ligations and luminal stenosis. To induce luminal stenosis, a 1 mm polyethylene tube was placed outside the vessel. Both the jugular vein and polyethylene tube were ligated 4 cm upstream of the ligature, and the tube was removed (Supplementary Figure 5). Next, 6 hours after stasis in the jugular vein, the rabbits were infused with heparin (500 U/kg, i.v.). They were then euthanized with an overdose of pentobarbital (60 mg/kg, i.v.), and the jugular veins were sampled. In this model, the animals were not perfused with phosphate-buffered saline because the thrombi were fragile. The venous thrombi were immediately removed from the venous wall and weighed.

Setting [3] is: 75 minutes after oral administration, ONO-1600586 5, 15, 50 mg/kg, rivaroxaban 1.5, 5, 15 mg/kg.
Where [4] appears, read: 4.5 hours after oral administration, ONO-1600586 50 mg/mL, rivaroxaban 15 mg/mL (so in the source).

Entries after “also recorded” stand apart in the source; their conditions may differ.

As to `O=C(NC[C@H]1CN(c2ccc(N3CCOCC3=O)cc2)C(=O)O1)c1ccc(Cl)s1` [rivaroxaban], the “PT after oral administration” value in the assay on PT and aPTT (setting [3]) is given as “dose-dependently prolonged”; in the assay with PT and aPTT (setting [4]), “prolonged”. For the same compound, the “aPTT after oral administration” value in the assay with PT and aPTT (setting [3]) was “dose-dependently prolonged”; in the assay with PT and aPTT (setting [4]) it was “prolonged”. Further, the “venous thrombus weight compared with control” value was “tended to reduce” in the assay on jugular vein thrombus [1] (1 mg/kg oral (so in the source)); “tended to reduce” in the assay on jugular vein thrombus [1] (5 mg/kg oral); “significantly reduced; also recorded: similarly reduced” with jugular vein thrombus [1] (15 mg/kg oral, 15 mg/kg). For the same compound, the “immunopositive area of fibrin in venous thrombus” value in the assay with jugular vein thrombus [1] (compared with control and ONO-1600586 groups) is given as “tended to be smaller”. Further, the “areas of erythrocytes or immunopositive areas of fibrin or GPIIb/IIIa in venous thrombus” value with jugular vein thrombus [1] (histology of jugular vein thrombus, comparison among groups) was “did not differ”. For the same compound, the “stasis-induced venous thrombus weight compared with control” value in the assay with jugular vein thrombus [2] is on record as “significantly reduced; also recorded: similarly reduced”.

The values are drawn from PMC11999338, “Factor XI localization in human deep venous thrombus and function of activated factor XI on venous thrombus formation and hemostasis” (Research and Practice in Thrombosis and Haemostasis, 2025).
